Assay results from PubChem BioAssay AID248 (DTP/NCI, 2004).
Values joined by “and” are separate entries in the source; they are usually repeats but may differ in a detail not shown here. Equal entries are not always repeated. Toxic doses and inconclusive results are not listed. Rule as the data show it: active = T/C of 150% or more; inactive = T/C below 125%.

Test system: L1210 leukemia ip in BDF1 mice, survival T/C
Assay: NCI In Vivo Anticancer Drug Screen. Data for tumor model L1210 Leukemia (intraperitoneal) in B6D2F1 (BDF1) mice
Details: endpoint: mean survival time, higher = longer survival
Outline: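 Antitumor effect is assessed in tumor-bearing animals. Survival in the compound arm is compared with a vehicle-dosed control arm and expressed as their quotient.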

[1] = dose: 25.0 mg/kg/injection, schedule: Q01DX009 (ip), vehicle: Klucel (hydroxypropylcellulose) (HPC)
[2] = dose: 50.0 mg/kg/injection, schedule: Q01DX009 (ip), vehicle: Klucel (hydroxypropylcellulose) (HPC)
[3] = dose: 100.0 mg/kg/injection, schedule: Q01DX009 (ip), vehicle: Klucel (hydroxypropylcellulose) (HPC)
[4] = dose: 100.0 mg/kg/injection, schedule: Q04DX003 (ip), vehicle: saline
[5] = dose: 200.0 mg/kg/injection, schedule: Q04DX003 (ip), vehicle: saline
[6] = dose: 100.0 mg/kg/injection, schedule: Q01DX009 (ip), vehicle: saline
[7] = dose: 100.0 mg/kg/injection, schedule: Q04DX002 (ip), vehicle: saline with Tween-80
[8] = dose: 200.0 mg/kg/injection, schedule: Q04DX002 (ip), vehicle: saline with Tween-80
[9] = dose: 400.0 mg/kg/injection, schedule: Q04DX002 (ip), vehicle: saline with Tween-80
[10] = dose: 100.0 mg/kg/injection, schedule: Q01DX001 (ip), vehicle: saline
[11] = dose: 200.0 mg/kg/injection, schedule: Q01DX001 (ip), vehicle: saline
[12] = dose: 400.0 mg/kg/injection, schedule: Q01DX001 (ip), vehicle: saline
[13] = dose: 400.0 mg/kg/injection, schedule: Q04DX003 (ip), vehicle: saline
[14] = dose: 200.0 mg/kg/injection, schedule: Q01DX009 (ip), vehicle: Klucel (hydroxypropylcellulose) (HPC)
[15] = dose: 100.0 mg/kg/injection, schedule: Q04DX002 (ip), vehicle: Klucel (hydroxypropylcellulose) (HPC)
[16] = dose: 200.0 mg/kg/injection, schedule: Q04DX002 (ip), vehicle: Klucel (hydroxypropylcellulose) (HPC)

Measured: T/C

CCOCc1nc(NC(C)=O)nc(NC(C)=O)c1-c1ccc(Cl)cc1
inactive: dose: 75.0 mg/kg/injection, schedule: Q01DX001 (ip), vehicle: saline with Tween-80 100 % of control | dose: 150.0 mg/kg/injection, schedule: Q01DX001 (ip), vehicle: saline with Tween-80 96 % of control

CSc1ccccc1C1CCCCCC1OS(C)(=O)=O (stereo unspecified)
inactive: dose: 12.5 mg/kg/injection, schedule: Q04DX003 (ip), vehicle: Klucel (hydroxypropylcellulose) (HPC) 109 % of control | [1] 109 % of control | dose: 25.0 mg/kg/injection, schedule: Q04DX003 (ip), vehicle: Klucel (hydroxypropylcellulose) (HPC) 106 % of control | [2] 107 % of control | dose: 50.0 mg/kg/injection, schedule: Q04DX003 (ip), vehicle: Klucel (hydroxypropylcellulose) (HPC) 102 % of control | dose: 100.0 mg/kg/injection, schedule: Q01DX001 (ip), vehicle: Klucel (hydroxypropylcellulose) (HPC) 105 % of control | [3] 102 % of control | dose: 100.0 mg/kg/injection, schedule: Q04DX003 (ip), vehicle: Klucel (hydroxypropylcellulose) (HPC) 107 % of control

O=C1NC(=O)C([N+](=O)[O-])=C(O)C1=O
inactive: [4] 96 % of control | [5] 101 % of control

CCCCCCCCC(=O)N(C)CCO
inactive: dose: 25.0 mg/kg/injection, schedule: Q01DX009 (ip), vehicle: saline 104 % of control | dose: 50.0 mg/kg/injection, schedule: Q01DX009 (ip), vehicle: saline 96 % of control | [6] 100 % of control | [4] 109 % of control | dose: 200.0 mg/kg/injection, schedule: Q04DX003 (ip), vehicle: saline with Tween-80 95 % of control | [5] 98 % of control

O=C1c2cccc3cc([N+](=O)[O-])cc(c23)C(=O)N1Cc1ccco1
inactive: [7] 95 % of control | [8] 120 % of control | [9] 88 % of control

CSc1ccc(NC(=O)c2ccc(Cl)cc2Cl)cc1
inactive: dose: 100.0 mg/kg/injection, schedule: Q01DX001 (ip), vehicle: saline with Tween-80 89 % of control | dose: 100.0 mg/kg/injection, schedule: Q01DX009 (ip), vehicle: saline + alcohol 95 % of control and 108 % of control | [7] 96 % of control and 108 % of control | dose: 200.0 mg/kg/injection, schedule: Q01DX001 (ip), vehicle: saline with Tween-80 89 % of control | dose: 200.0 mg/kg/injection, schedule: Q01DX009 (ip), vehicle: saline + alcohol 97 % of control and 106 % of control | [8] 93 % of control and 97 % of control | dose: 400.0 mg/kg/injection, schedule: Q01DX001 (ip), vehicle: saline with Tween-80 90 % of control | [9] 93 % of control and 97 % of control

CC(C)(C)C(=O)CN
inactive: [10] 116 % of control | [6] 101 % of control and 104 % of control | [4] 101 % of control | [11] 119 % of control | dose: 200.0 mg/kg/injection, schedule: Q01DX009 (ip), vehicle: saline 93 % of control and 97 % of control | [5] 109 % of control | [12] 122 % of control | dose: 400.0 mg/kg/injection, schedule: Q01DX009 (ip), vehicle: saline 101 % of control | [13] 93 % of control

N#Cc1nc2c(n(O)c1=N)CCC/C2=C\c1ccccc1
inactive: [2] 103 % of control | [3] 103 % of control | [14] 93 % of control

CC(=O)Nc1ccc(C(=O)/C=C/C(=O)O)c(O)c1
inactive: [4] 98 % of control | [5] 100 % of control | [13] 100 % of control

COc1cc([N+](=O)[O-])ccc1NC(=O)c1ccccc1
inactive: dose: 100.0 mg/kg/injection, schedule: Q01DX001 (ip), vehicle: carboxymethylcellulose (CMC) 99 % of control | dose: 200.0 mg/kg/injection, schedule: Q01DX001 (ip), vehicle: carboxymethylcellulose (CMC) 101 % of control | dose: 400.0 mg/kg/injection, schedule: Q01DX001 (ip), vehicle: carboxymethylcellulose (CMC) 97 % of control

NC(=O)Nc1ccccc1F
inactive: [15] 106 % of control | [16] 100 % of control | dose: 400.0 mg/kg/injection, schedule: Q04DX002 (ip), vehicle: Klucel (hydroxypropylcellulose) (HPC) 100 % of control

O=S(=O)(c1ccccc1)C1CC1c1ccc(Cl)cc1 (stereo unspecified)
inactive: [10] 97 % of control | [4] 104 % of control | [11] 92 % of control | [5] 96 % of control | [12] 98 % of control | [13] 96 % of control

COC(=O)c1c(C(=O)c2ccccc2)nn2c(-c3ccccc3)c(-c3ccccc3)c(-c3ccccc3)c(-c3ccccc3)c12
inactive: [11] 86 % of control | [12] 93 % of control

CNCC/C=C1\c2ccccc2CCSc2ccccc21
inactive: dose: 25.0 mg/kg/injection, schedule: Q04DX003 (ip), vehicle: saline 98 % of control | dose: 50.0 mg/kg/injection, schedule: Q04DX003 (ip), vehicle: saline 101 % of control | [4] 95 % of control and 101 % of control

[N-]=[N+]=C1C=CC=C1C(=O)O
inactive: dose: 12.5 mg/kg/injection, schedule: Q01DX009 (ip), vehicle: Klucel (hydroxypropylcellulose) (HPC) 98 % of control | [1] 103 % of control | [2] 97 % of control | dose: 100.0 mg/kg/injection, schedule: Q04DX003 (ip), vehicle: acetone 94 % of control | dose: 200.0 mg/kg/injection, schedule: Q04DX003 (ip), vehicle: acetone 93 % of control | dose: 400.0 mg/kg/injection, schedule: Q04DX003 (ip), vehicle: acetone 91 % of control

c1ccc(C[Se]Cc2ccccc2)cc1
inactive: dose: 100.0 mg/kg/injection, schedule: Q04DX003 (ip), vehicle: other 92 % of control

CCN1CCc2cc3c(cc2C1)OCO3
inactive: dose: 10.0 mg/kg/injection, schedule: Q01DX001 (ip), vehicle: carboxymethylcellulose (CMC) 98 % of control | dose: 20.0 mg/kg/injection, schedule: Q01DX001 (ip), vehicle: carboxymethylcellulose (CMC) 93 % of control | dose: 40.0 mg/kg/injection, schedule: Q01DX001 (ip), vehicle: carboxymethylcellulose (CMC) 94 % of control | dose: 80.0 mg/kg/injection, schedule: Q01DX001 (ip), vehicle: carboxymethylcellulose (CMC) 96 % of control

CCN(CC)C(=O)C1C2C=CC(CC2)C1C(=O)N(CC)CC (stereo unspecified)
inactive: [4] 100 % of control | [5] 96 % of control | [13] 96 % of control

CC(C)CCC1=C(O)c2ccccc2C(=O)C1=O
inactive: dose: 30.0 mg/kg/injection, schedule: Q01DX015 (ip), vehicle: water 100 % of control | dose: 35.0 mg/kg/injection, schedule: Q01DX015 (ip), vehicle: water 106 % of control | dose: 45.0 mg/kg/injection, schedule: Q01DX015 (ip), vehicle: water 95 % of control | dose: 70.0 mg/kg/injection, schedule: Q01DX015 (ip), vehicle: water 103 % of control

O=C(Nc1ccccc1F)Oc1ccc(Cl)cc1Cl
inactive: [2] 114 % of control | [3] 111 % of control | [15] 105 % of control | [14] 102 % of control | [16] 102 % of control

COc1ccc(C(O)C2c3c(cc4c(c3OC)OCO4)CCN2C)c(CO)c1OC (stereo unspecified)
inactive: dose: 75.0 mg/kg/injection, schedule: Q01DX001 (ip), vehicle: carboxymethylcellulose (CMC) 100 % of control | dose: 150.0 mg/kg/injection, schedule: Q01DX001 (ip), vehicle: carboxymethylcellulose (CMC) 105 % of control
